From patent publication US7884247B2, “Salt of dimethylaminomethyl-phenyl-cyclohexane and crystalline forms thereof” (Gruenenthal GmbH, priority 2005, dated 2011)

Legend:
[1] = Storage under elevated atmospheric humidity, samples investigated by Raman spectroscopy; assay type: physicochemical; settings: room temperature, 75% relative atmospheric humidity
Source text: The amorphous form according to Example B1 is stored at room temperature and 75% relative atmospheric humidity and samples are investigated after 2 days, 1, 2, 3, 4 and 8 weeks using Raman spectroscopy. […] The same mixture is still observed after 8 weeks.
The maleate produced according to Example A1 is stored at room temperature and 75% relative atmospheric humidity and samples are investigated after 3 days, 1, 2, 3, 4, 8 and 10 weeks using Raman spectroscopy.
The crystalline form B produced according to Example D1 is stored at room temperature and 75% relative atmospheric humidity and samples are investigated after 3 days, 1, 2, 3, 4 and 8 weeks using Raman spectroscopy.
FT Raman spectra are recorded using a Bruker RFS 100 FT-Raman system, which is operated with an Nd:YAG laser (wavelength 1064 nm) and a germanium detector cooled with liquid nitrogen. For each sample, 64 scans are accumulated with a resolution of 2 cm^−1. In general, a laser power of 100 mW is used.

[2] = Stability under grinding conditions (trituration, ball mill); assay type: physicochemical
Description: The maleate produced according to Example A1 is triturated with a pestle in a mortar for 5 minutes. […] Amorphous fractions are not observed.
Crystalline form B according to Example D1 is triturated with a pestle in a mortar for 5 minutes.
The maleate produced according to Example A1 is introduced into an agate ball mill (Retsch MM200 mixing mill with 5 mm agate ball) and ground at 20 Hz and room temperature for 180 minutes. […] Amorphous fractions are not observed.
The procedure is carried out in accordance with Example E4c) with crystalline form B according to Example D1.

[3] = Stability under pressure (tablet pressing); assay type: physicochemical; settings: tablet press, vacuum, 100 MPa, 60 minutes
Description: The maleate produced according to Example A1 is introduced into a tablet press and pressed under a vacuum at a pressure of 100 MPa for 60 minutes to form a tablet.
The procedure is carried out in accordance with Example E5a) with crystalline form B according to Example D1.

[4] = Water absorption by Dynamic Vapour Sorption (Example E6); assay type: physicochemical; settings: 25° C.; for Crystalline form at the end of the DVS measuring cycle: maleate; for Water absorption: DVS
Description: (§1) Water absorption is determined by means of dynamic water vapour absorption (Dynamic Vapour Sorption, DVS) using apparatus DVS-1 from Surface Measurement System Ltd. The sample is placed in a platinum crucible at the tip of a microchemical balance. Then the sample is firstly equilibrated at 50% relative atmospheric humidity and then subjected to a predefined measuring program. The temperature is 25° C. The change in weight of the sample is determined.

[5] = Stability at elevated temperature in open and closed vessels (HPLC, FT Raman); assay type: physicochemical
Description: The crystalline forms are stored in open and closed vessels and, after a predetermined time, possible changes are measured chromatographically (HPLC) as stability parameters.

[6] = Water absorption of maleate and hydrochloride by DVS (Example E8, comparison); assay type: physicochemical; settings: 25° C.
Description: as §1, with “determined after a stepwise increase in relative atmospheric humidity by 10% steps up to 90%.” for “determined.”

[7] = Damp storage and drying of maleate and hydrochloride (XRD, DSC, dry weight, Karl-Fischer water content); assay type: physicochemical; settings: for Change in crystalline form by X-ray diffraction pattern: after damp storage (25° C., 75% and 95% R.H., 7 days) and drying (50° C., vacuum, 7 days)
Description: Maleate and hydrochloride according to Example E8 are stored firstly at 25° C. and 75% and 95% relative atmospheric humidity for 7 days and thereafter are dried for 7 days in the drying cabinet at 50° C. under a vacuum. Before storage begins, X-ray diffraction patterns (XRD) are recorded, DSC performed to determine transition points (Tp), dry weight (DW) and the Karl-Fischer water content (WC) are determined and the same values again after damp storage and drying. The X-ray diffraction patterns show no change in crystalline forms A and D after damp storage and drying. The initial vales for the hydrochloride are Tp=116.27° C., DW=6.35% and WC 8.00%. The initial values for the maleate are Tp=170.4° C. and 179.85° C., DW=0 and WC=0.2%. The results are given in Tables 3 (75% relative atmospheric humidity) and 4 (95% relative atmospheric humidity).

[8] = General properties stated in the description (solubility, hygroscopicity)
[9] = Storage of amorphous form at room temperature and 20% or 90% atmospheric humidity for 24 hours; assay type: physicochemical; settings: 20 mg, room temperature
[10] = 40° C./75% R.H., 1 week, maleate
[11] = 60° C. (closed), 1 week, maleate
[12] = 60° C. (closed), 4 weeks, maleate
[13] = 60° C./75% R.H., 4 weeks, maleate
[14] = 75% R.H. storage, then dried 7 days at 50° C. under vacuum
[15] = 95% R.H. storage, then dried 7 days at 50° C. under vacuum
[16] = after damp storage, 25° C., 75% relative atmospheric humidity, 7 days
[17] = after damp storage, 25° C., 95% relative atmospheric humidity, 7 days

With `CN(C)C[C@@H]1CCCC[C@H]1c1cccc(O)c1.O=C(O)/C=C\C(=O)O` [Crystalline form A, (+)-(1R,2R)-3-[2-(dimethylamino)methyl-(cyclohex-1-yl)]-phenol maleate] as the compound, how does the “Crystalline form found by Raman spectroscopy after storage” value (shortened to “Crystalline form found”) ([1]; after 10 weeks) read?
The value was “virtually unchanged”.

And the “Amorphous fractions after grinding” value ([2]; agate ball mill, 20 Hz, room temperature, 180 minutes)?
The value was “not observed”.

What about the “Crystalline form after grinding” value ([2]; agate ball mill, 20 Hz, room temperature, 180 minutes, listed as Example A1, maleate) of the same compound?
The value was “unchanged form”.

What about the “Amorphous fractions after trituration” value ([2]; pestle in a mortar, 5 minutes) of the same compound?
Its value is “not observed”.

What about the “Crystalline form after trituration” value ([2]; pestle in a mortar, 5 minutes, listed as Example A1, maleate) of the same compound?
Its value is “unchanged form”.

And the “Crystalline form after tablet pressing” value ([3]; listed as Example A1, maleate)?
Its value is “unchanged form”.

What about the “Crystalline form at the end of the DVS measuring cycle” value [4] of the same compound?
The value was “unchanged crystalline form A”.

And the Water absorption ([4]; measuring cycle)?
Its Water absorption is “approx. 0.2 wt. %”.

What about the HPLC [5, 10] of the same compound?
Its HPLC is 100.2%.

And the HPLC [5, 11]?
Its HPLC is 100.2%.

And the HPLC [5, 12]?
The HPLC was 100.5%.

And the HPLC [5, 13]?
Its HPLC is 100.3%.

And the “Stability at elevated temperature (summary)” value ([5]; storage in open and closed vessels)?
Its value is “very stable with regard to chemical stability and crystal shape”.

And the HPLC ([5]; −18° C. (reference), 4 weeks)?
The HPLC was 100%.

What about the “Release of the absorbed moisture” value ([6]; at approx. 10% relative atmospheric humidity) of the same compound?
The value was “released again completely”.

What about the Water absorption ([6]; relative atmospheric humidity raised in 10% steps up to 90%) of the same compound?
The Water absorption was 0.06%.

What about the Tp [7, 14] of the same compound?
Its Tp is 165.33 °C.

And the WC [7, 14]?
Its WC is 0.20%.

And the WC [7, 15]?
Its WC is 0.50%.

What about the “Change in crystalline form by X-ray diffraction pattern” value [7] of the same compound?
Its value is “no change”.

And the Tp [7, 16]?
Its Tp is 165.41 °C.

What about the WC [7, 16] of the same compound?
The WC was 0.20%.

And the WC [7, 17]?
The WC was 0.20%.

And the “DW (dry weight)” value ([7]; initial value, before storage)?
The value was 0%.

What about the “WC (Karl-Fischer water content)” value ([7]; initial value, before storage) of the same compound?
The value was 0.2%.

What about the Hygroscopicity [8] of the same compound?
Its Hygroscopicity is “non-hygroscopic”.

What about the “Solubility in polar solvents” value [8] of the same compound?
Its value is “very good”.

What does the source list for `CN(C)C[C@@H]1CCCC[C@H]1c1cccc(O)c1.O=C(O)/C=C\C(=O)O` [Crystalline form B, (+)-(1R,2R)-3-[2-(dimethylamino)methyl-(cyclohex-1-yl)]-phenol maleate]?
Crystalline form found by Raman spectroscopy after storage ([1]; after 8 weeks, maleate): virtually unchanged; Crystalline form after grinding ([2]; agate ball mill, 20 Hz, room temperature, 180 minutes, maleate): mixture of crystalline forms A and B; Crystalline form after trituration ([2]; pestle in a mortar, 5 minutes, maleate): mixture of crystalline forms A and B; Crystalline form after tablet pressing ([3]; maleate): mixture of crystalline forms A and B; Crystalline form at the end of the DVS measuring cycle [4]: mixture of crystalline forms A and B; Water absorption ([4]; measuring cycle): approx. 0.2 wt. %; FT Raman (determination of crystalline form) ([5]; 40° C./75% R.H., 1 week): A and B; HPLC [5, 10]: 100.3%; FT Raman (determination of crystalline form) ([5]; 60° C. (closed), 1 week): A and B; HPLC [5, 11]: 100.6%; FT Raman (determination of crystalline form) ([5]; 60° C. (closed), 4 weeks): A and B; HPLC [5, 12]: 100.9%; FT Raman (determination of crystalline form) ([5]; 60° C./75% R.H., 4 weeks): A and B; HPLC [5, 13]: 101.1%; FT Raman (determination of crystalline form) ([5]; −18° C. (reference), 4 weeks): A and B; HPLC ([5]; −18° C. (reference), 4 weeks): 100%; Solubility in polar solvents [8]: very good

What does the source list for `CN(C)C[C@@H]1CCCC[C@H]1c1cccc(O)c1.Cl` [Hydrochloride, (+)-(1R,2R)-3-[2-(dimethylamino)methyl-(cyclohex-1-yl)]-phenol hydrochloride]?
Water absorption altogether ([6]; further increase to 90% relative atmospheric humidity): approx. 5 wt. %; Water absorption ([6]; relative atmospheric humidity increased to approx. 75%): approx. 2 wt. %; Water released on desorption altogether ([6]; relative atmospheric humidity lowered in 10% steps): 8.5%; DW [7, 14]: 6.12%; Tp [7, 14]: 113.83 °C; WC [7, 14]: 6.00%; DW [7, 15]: 6.74; Tp [7, 15]: 114.47 °C; WC [7, 15]: 6.60%; Change in crystalline form by X-ray diffraction pattern [7]: no change; DW [7, 16]: 5.92%; Tp [7, 16]: 116.22 °C; WC [7, 16]: 8.50%; DW [7, 17]: 7.84%; Tp [7, 17]: 116.52 °C; WC [7, 17]: 8.50%; DW (dry weight) ([7]; initial value, before storage): 6.35%; Tp (transition point, DSC) ([7]; initial value, before storage): 116.27 °C; WC (Karl-Fischer water content) ([7]; initial value, before storage): 8.00%; Hygroscopicity [8]: decidedly hygroscopic

Which “Crystalline form found” value ([1]; after 8 weeks, maleate) does the source give for `CN(C)C[C@@H]1CCCC[C@H]1c1cccc(O)c1.O=C(O)/C=C\C(=O)O` [amorphous form, (+)-(1R,2R)-3-[2-(dimethylamino)methyl-(cyclohex-1-yl)]-phenol maleate] here?
The value was “same mixture”.

What about the “Crystalline form found” value ([1]; after 2 days) of the same compound?
The value was “mixture of crystalline forms A and B”.

And the “Crystalline form at the end of the DVS measuring cycle” value [4]?
The value was “mixture of crystalline forms A and B”.

What about the Water absorption ([4]; up to approx. 33% relative atmospheric humidity) of the same compound?
The Water absorption was “approx. 2.2 wt. %”.

What about the “Form obtained after storage” value ([9]; 20% atmospheric humidity) of the same compound?
Its value is “mixture of crystalline forms A and B”.

What about the “Form obtained after storage” value ([9]; 90% atmospheric humidity) of the same compound?
The value was “only crystalline form A”.
